Results reported in patent US10206394B2, “Herbicidal compounds” (Syngenta Participations AG, priority 2014, dated 2019).
Where two headings read alike, the source gives them in different places.

Tests used:
Assay in all cases: Glasshouse assay for herbicidal activity (pre- and post-emergence), percentage phytotoxicity
Assay type in all cases: in vivo
[1] = system: Alopecurus myosuroides (ALOMY); settings: Alopecurus myosuroides, 250 g/ha, visual assessment (100%=total damage, 0%=no damage)
Summary of the method: (§1)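 Herbicide was applied to potted plants sown in standard soil, one day after sowing for PRE and after about 12 days for POST. Visual percentage damage ratings followed at 15 DAA (POST) and 20 DAA (PRE).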

Avena fatua (AVEFA) = settings: Avena fatua, 250 g/ha, visual assessment (100%=total damage, 0%=no damage)
Summary of the method: as §1

[2] = system: Echinochloa crus-galli (ECHCG); settings: Echinochloa crus-galli, 250 g/ha, visual assessment (100%=total damage, 0%=no damage)
Summary of the method: as §1

Lolium perenne (LOLPE) = settings: Lolium perenne, 250 g/ha, visual assessment (100%=total damage, 0%=no damage)
Summary of the method: as §1

[3] = post-emergence, 360 h, post-emergence, 15 DAA, read-out: Post-emergence herbicidal activity (percentage phytotoxicity) ALOMY POST
[4] = pre-emergence, 480 h, pre-emergence, 20 DAA, read-out: Pre-emergence herbicidal activity (percentage phytotoxicity) ALOMY PRE
[5] = post-emergence, 360 h, post-emergence, 15 DAA, read-out: Post-emergence herbicidal activity (percentage phytotoxicity) AVEFA POST
[6] = pre-emergence, 480 h, pre-emergence, 20 DAA, read-out: Pre-emergence herbicidal activity (percentage phytotoxicity) AVEFA PRE
[7] = post-emergence, 360 h, post-emergence, 15 DAA, read-out: Post-emergence herbicidal activity (percentage phytotoxicity) ECHCG POST
[8] = pre-emergence, 480 h, pre-emergence, 20 DAA, read-out: Pre-emergence herbicidal activity (percentage phytotoxicity) ECHCG PRE
[9] = post-emergence, 360 h, post-emergence, 15 DAA, read-out: Post-emergence herbicidal activity (percentage phytotoxicity) LOLPE POST
[10] = pre-emergence, 480 h, pre-emergence, 20 DAA, read-out: Pre-emergence herbicidal activity (percentage phytotoxicity) LOLPE PRE

SMILES | pest or weed control at 250 g/ha [1, 3] [%] | pest or weed control at 250 g/ha [1, 4] [%] | pest or weed control at 250 g/ha (Avena fatua (AVEFA); [5]) [%] | pest or weed control at 250 g/ha (Avena fatua (AVEFA); [6]) [%] | pest or weed control at 250 g/ha [2, 7] [%] | pest or weed control at 250 g/ha [2, 8] [%] | pest or weed control at 250 g/ha (Lolium perenne (LOLPE); [9]) [%] | pest or weed control at 250 g/ha (Lolium perenne (LOLPE); [10]) [%]
Cc1cc(-c2ncc(Cl)cc2F)cc(C)c1C1C(=O)CC(CC(N)=O)C1=O (centres unmarked) [Compound B53] | 90 | 90 | 100 | 100 | 100 | 90 | 100 | 90
Cc1cc(-c2ncc(F)cc2F)cc(C)c1C1C(=O)CC(CC(N)=O)C1=O (centres unmarked) [Compound B54] | 100 | 80 | 100 | 80 | 100 | 80 | 100 | 80
C#CC(C)(COC)NC(=O)CC1CC(=O)C(c2c(C)cc(C)cc2C)C1=O (centres unmarked) [Compound B55] | 80 | 80 | 60 | 30 | 60 | 50 | 70 | 70
C#CC(C)NC(=O)CC1CC(=O)C(c2c(C)cc(C)cc2C)C1=O (centres unmarked) [Compound B56] | 90 | 80 | 90 | 70 | 90 | 90 | 90 | 80
Cc1cc(C)c(C2C(=O)CC(CC(=O)NCC(F)F)C2=O)c(C)c1 (centres unmarked) [Compound B57] | 70 | 70 | 80 | 20 | 80 | 90 | 80 | 80
Cc1cc(C)c(C2C(=O)CC(CC(=O)NC(C#N)C3CC3)C2=O)c(C)c1 (centres unmarked) [Compound B58] | 50 | 10 | 70 | 40 | 20 | 20 | 50 | 20
Cc1cc(C)c(C2C(=O)CC(CC(=O)NCC(F)(F)F)C2=O)c(C)c1 (centres unmarked) [Compound B59] | 70 | 70 | 70 | 30 | 80 | 90 | 80 | 90
Cc1cc(C)c(C2C(=O)CC(CC(=O)NCC3CC3C(F)F)C2=O)c(C)c1 (centres unmarked) [Compound B60] | 80 | 90 | 80 | 60 | 90 | 90 | 80 | 80
Cc1cc(C)c(C2C(=O)CC(CC(=O)NCCF)C2=O)c(C)c1 (centres unmarked) [Compound B61] | 80 | 70 | 90 | 70 | 90 | 90 | 90 | 90
C=CC1(NC(=O)CC2CC(=O)C(c3c(C)cc(C)cc3C)C2=O)CC1 (centres unmarked) [Compound B62] | 70 | 80 | 70 | 40 | 70 | 90 | 90 | 90
Cc1cc(C)c(C2C(=O)CC(CC(=O)NC(C)C(F)(F)F)C2=O)c(C)c1 (centres unmarked) [Compound B63] | 70 | 80 | 70 | 50 | 70 | 80 | 70 | 80
Cc1cc(C)c(C2C(=O)CC(CC(=O)Nc3ccccn3)C2=O)c(C)c1 (centres unmarked) [Compound B64] | 80 | 80 | 70 | 50 | 70 | 80 | 80 | 70
Cc1cc(C)c(C2C(=O)CC(CC(=O)NC(C)(C)C3CC3)C2=O)c(C)c1 (centres unmarked) [Compound B65] | 70 | 80 | 50 | 60 | 70 | 90 | 70 | 80
Cc1ccnc(CNC(=O)CC2CC(=O)C(c3c(C)cc(C)cc3C)C2=O)c1 (centres unmarked) [Compound B66] | 90 | 90 | 80 | 0 | 80 | 90 | 90 | 90
Cc1cc(C)c(C2C(=O)CC(CC(=O)NCc3ncccc3C)C2=O)c(C)c1 (centres unmarked) [Compound B67] | 90 | 90 | 80 | 10 | 80 | 90 | 70 | 90
Cc1cc(C)c(C2C(=O)CC(CC(=O)NCc3cccc(C)n3)C2=O)c(C)c1 (centres unmarked) [Compound B68] | 90 | 80 | 80 | 10 | 70 | 80 | 70 | 80
Cc1cc(C)c(C2C(=O)CC(CC(=O)NCc3ccc(C#N)cc3)C2=O)c(C)c1 (centres unmarked) [Compound B69] | 40 | 50 | 100 | 80 | 80 | 90 | 80 | 90
Cc1cc(-c2ncc(F)cc2F)cc(C)c1C1C(=O)CC(CC(=O)NCc2cccc(F)c2)C1=O (centres unmarked) [Compound B70] | 100 | 80 | 100 | 80 | 100 | 100 | 100 | 90
Cc1cc(-c2ncc(F)cc2F)cc(C)c1C1C(=O)CC(CC(=O)NCc2cc(F)cc(F)c2)C1=O (centres unmarked) [Compound B71] | 100 | 90 | 100 | 90 | 100 | 100 | 100 | 90
Cc1cc(-c2ncc(F)cc2F)cc(C)c1C1C(=O)CC(CC(=O)NCc2ccc(F)cc2)C1=O (centres unmarked) [Compound B72] | 100 | 100 | 100 | 70 | 100 | 100 | 100 | 100
Cc1cc(-c2ncc(F)cc2F)cc(C)c1C1C(=O)CC(CC(=O)NCc2ccc(F)c(F)c2)C1=O (centres unmarked) [Compound B73] | 100 | 90 | 100 | 90 | 100 | 100 | 100 | 90
Cc1cc(-c2ncccc2Cl)cc(C)c1C1C(=O)CC(CC(=O)NC(C)(C)C)C1=O (centres unmarked) [Compound B74] | 60 | 10 | 60 | 0 | 60 | 10 | 50 | 30
